Measured values reported in PubChem BioAssay AID248 (DTP/NCI, 2004).
Several values for one entry are separate records, joined by “and”; a condition that tells them apart may be missing. Identical values can stand only once. Inconclusive results and toxic doses are left out. Rule as the data show it: active = T/C of 150% or more; inactive = T/C below 125%.

Test system: L1210 leukemia ip in BDF1 mice, survival T/C
Test: NCI In Vivo Anticancer Drug Screen. Data for tumor model L1210 Leukemia (intraperitoneal) in B6D2F1 (BDF1) mice
Settings: endpoint: mean survival time, higher = longer survival
In short: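 Antitumor effect is assessed in tumor-bearing animals. Survival in the compound arm is compared with a vehicle-dosed control arm and expressed as their quotient.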

[1] = dose: 100.0 mg/kg/injection, schedule: Q01DX009 (ip), vehicle: saline with Tween-80
[2] = dose: 200.0 mg/kg/injection, schedule: Q01DX009 (ip), vehicle: saline with Tween-80
[3] = dose: 100.0 mg/kg/injection, schedule: Q04DX003 (ip), vehicle: saline with Tween-80
[4] = dose: 400.0 mg/kg/injection, schedule: Q01DX001 (ip), vehicle: carboxymethylcellulose (CMC)
[5] = dose: 100.0 mg/kg/injection, schedule: Q01DX001 (ip), vehicle: carboxymethylcellulose (CMC)
[6] = dose: 200.0 mg/kg/injection, schedule: Q01DX001 (ip), vehicle: carboxymethylcellulose (CMC)
[7] = dose: 50.0 mg/kg/injection, schedule: Q04DX002 (ip), vehicle: Klucel (hydroxypropylcellulose) (HPC)
[8] = dose: 100.0 mg/kg/injection, schedule: Q04DX002 (ip), vehicle: Klucel (hydroxypropylcellulose) (HPC)

Measured: T/C

COC(=O)CN1C(=O)c2ccccc2C1=O
inactive: dose: 100.0 mg/kg/injection, schedule: Q04DX003 (ip), vehicle: saline 95 % of control | dose: 200.0 mg/kg/injection, schedule: Q04DX003 (ip), vehicle: saline 101 % of control | dose: 400.0 mg/kg/injection, schedule: Q04DX003 (ip), vehicle: saline 98 % of control

Oc1cc(O)c2c(c1)OC(O)(c1ccc(O)c(O)c1)C(O)O2 (stereo unspecified) (tested in a mixture with another compound)
inactive: dose: 50.0 mg/kg/injection, schedule: Q01DX009 (ip), vehicle: saline with Tween-80 104 % of control | [1] 95 % of control | [2] 102 % of control

Cc1ncc(C(C)(O)c2ccccc2)n1C (stereo unspecified)
inactive: [1] 105 % of control | [2] 94 % of control

CC1CCC(C)C1NC1=NCCO1 (stereo unspecified)
inactive: dose: 6.25 mg/kg/injection, schedule: Q01DX009 (ip), vehicle: saline with Tween-80 90 % of control | dose: 12.5 mg/kg/injection, schedule: Q01DX009 (ip), vehicle: saline with Tween-80 95 % of control | dose: 25.0 mg/kg/injection, schedule: Q01DX009 (ip), vehicle: saline with Tween-80 90 % of control | dose: 25.0 mg/kg/injection, schedule: Q04DX003 (ip), vehicle: saline with Tween-80 93 % of control | dose: 50.0 mg/kg/injection, schedule: Q04DX003 (ip), vehicle: saline with Tween-80 93 % of control | [3] 87 % of control

COc1ccc(Nc2ccccc2C(=O)NN)cc1
inactive: dose: 50.0 mg/kg/injection, schedule: Q01DX009 (ip), vehicle: Klucel (hydroxypropylcellulose) (HPC) 102 % of control | dose: 100.0 mg/kg/injection, schedule: Q01DX009 (ip), vehicle: Klucel (hydroxypropylcellulose) (HPC) 96 % of control | dose: 100.0 mg/kg/injection, schedule: Q04DX003 (ip), vehicle: Klucel (hydroxypropylcellulose) (HPC) 94 % of control | dose: 200.0 mg/kg/injection, schedule: Q04DX003 (ip), vehicle: Klucel (hydroxypropylcellulose) (HPC) 105 % of control

O=c1[nH]c(=O)n(CCCc2ccccc2)cc1-c1ccccc1
inactive: [4] 90 % of control

CCCCCCCCC(=O)Nc1ccc(O)cc1
inactive: dose: 100.0 mg/kg/injection, schedule: Q01DX009 (ip), vehicle: gum acacia 97 % of control | dose: 100.0 mg/kg/injection, schedule: Q04DX003 (ip), vehicle: gum acacia 104 % of control | dose: 200.0 mg/kg/injection, schedule: Q01DX009 (ip), vehicle: gum acacia 105 % of control | dose: 200.0 mg/kg/injection, schedule: Q04DX003 (ip), vehicle: gum acacia 88 % of control | dose: 400.0 mg/kg/injection, schedule: Q01DX009 (ip), vehicle: gum acacia 112 % of control | dose: 400.0 mg/kg/injection, schedule: Q04DX003 (ip), vehicle: gum acacia 102 % of control

COc1ccc(O)c(C2(O)OC(=O)c3c(OC)cccc32)c1 (stereo unspecified)
inactive: [5] 103 % of control and 111 % of control | dose: 100.0 mg/kg/injection, schedule: Q01DX009 (ip), vehicle: carboxymethylcellulose (CMC) 100 % of control and 89 % of control | dose: 100.0 mg/kg/injection, schedule: Q04DX002 (ip), vehicle: carboxymethylcellulose (CMC) 102 % of control and 113 % of control | dose: 100.0 mg/kg/injection, schedule: Q04DX003 (ip), vehicle: carboxymethylcellulose (CMC) 95 % of control and 100 % of control | [6] 94 % of control and 106 % of control | dose: 200.0 mg/kg/injection, schedule: Q01DX009 (ip), vehicle: carboxymethylcellulose (CMC) 104 % of control and 89 % of control | dose: 200.0 mg/kg/injection, schedule: Q04DX002 (ip), vehicle: carboxymethylcellulose (CMC) 97 % of control | dose: 200.0 mg/kg/injection, schedule: Q04DX003 (ip), vehicle: carboxymethylcellulose (CMC) 94 % of control and 100 % of control | [4] 94 % of control and 103 % of control | dose: 400.0 mg/kg/injection, schedule: Q04DX002 (ip), vehicle: carboxymethylcellulose (CMC) 97 % of control and 98 % of control | dose: 400.0 mg/kg/injection, schedule: Q04DX003 (ip), vehicle: carboxymethylcellulose (CMC) 95 % of control and 90 % of control

CC(C)C(N)C(=O)NO (stereo unspecified)
inactive: dose: 50.0 mg/kg/injection, schedule: Q01DX009 (ip), vehicle: saline 95 % of control | dose: 100.0 mg/kg/injection, schedule: Q01DX009 (ip), vehicle: saline 100 % of control | dose: 200.0 mg/kg/injection, schedule: Q01DX009 (ip), vehicle: saline 107 % of control | dose: 400.0 mg/kg/injection, schedule: Q01DX009 (ip), vehicle: saline 110 % of control

Cc1cc(C)c2c(c1)C(=O)C(=O)c1cc(C)cc(C)c1-2
inactive: [7] 95 % of control | [8] 94 % of control and 92 % of control | dose: 200.0 mg/kg/injection, schedule: Q04DX002 (ip), vehicle: Klucel (hydroxypropylcellulose) (HPC) 98 % of control | dose: 400.0 mg/kg/injection, schedule: Q04DX002 (ip), vehicle: Klucel (hydroxypropylcellulose) (HPC) 116 % of control and 88 % of control

O=S(c1ccccc1)N(OCc1ccccc1)S(=O)c1ccccc1 (stereo unspecified)
inactive: dose: 25.0 mg/kg/injection, schedule: Q04DX002 (ip), vehicle: Klucel (hydroxypropylcellulose) (HPC) 98 % of control | [7] 104 % of control | [8] 95 % of control

COC1OCC(OS(C)(=O)=O)C(NC(C)=O)C1OS(C)(=O)=O (stereo unspecified)
inactive: [5] 104 % of control | dose: 177.0 mg/kg/injection, schedule: Q01DX001 (ip), vehicle: carboxymethylcellulose (CMC) 100 % of control | [6] 98 % of control | dose: 266.0 mg/kg/injection, schedule: Q01DX001 (ip), vehicle: carboxymethylcellulose (CMC) 94 % of control and 108 % of control | [4] 94 % of control and 103 % of control | dose: 600.0 mg/kg/injection, schedule: Q01DX001 (ip), vehicle: carboxymethylcellulose (CMC) 97 % of control

CC(Oc1ccc(Br)cc1Br)C(=O)O (stereo unspecified)
inactive: [3] 93 % of control | dose: 200.0 mg/kg/injection, schedule: Q04DX003 (ip), vehicle: saline with Tween-80 93 % of control | dose: 400.0 mg/kg/injection, schedule: Q04DX003 (ip), vehicle: saline with Tween-80 95 % of control
